Measurements as given in patent US9833520B2, “Labeled, non-peptidic, multivalent integrin antagonist compounds; methods for synthesis and uses thereof” (The Methodist Hospital Research Institute, priority 2011, dated 2017).
“Also recorded” adds a separate entry of the source. Where two headings read alike, the source gives them in different places. Blank lines part the entries; values can stand above or below the compound they belong to.

Columns and labels:
[1] = biological target: T1, purified human αvβ3 (Homo sapiens, UniProt P05106+P06756); assay: ELISA: competitive inhibition of biotinylated vitronectin binding to immobilized purified integrin αvβ3; settings: for higher binding affinity as compared to monomer 1 (IA): compared to IA 1
T1 construct: purchased Chemicon International, Temecula, Calif., USA
Description: In vitro Binding Assay. […] Purified integrin αvβ3 protein (Chemicon International, Temecula, Calif., USA) was applied to 96-well polystyrene microtiter plates at 0.1 μg/well. After overnight incubation at 4° C., the plates were washed, and then blocked with milk solution (KPL, Inc. Gaithersburg, Md., USA) at room temperature for 2 hr. The blocking buffer was removed, and the plates were inoculated in quadruplicate with bivalent IAs with a typical starting concentration of 125 nM. Serial dilutions were prepared in the 96-well plates using multichannel pipettes. Biotinylated vitronectin solution (0.1 μg/well) was added to each well as a standard competitor. The plates were incubated at room temperature for 3 h, washed, and the bound vitronectin was detected using NeutrAvidin-HRP conjugate at 0.01 μg/well (Pierce, Rockford, Ill., USA) and LumiGlo® chemiluminescent substrate system (KPL, Inc.). The luminescence was read using a FLUOstar™ OPTIMA Microplate Reader (Durham, N.C., USA). […] (Peptides International, Inc., Louisville, Ky., USA) was also tested using the same method as described above.
Briefly, purified integrin αvβ3 protein (Chemicon International, Temecula, Calif., USA) was applied to 96-well polystyrene microtiter plates for overnight incubation at 4° C. The plates were washed and then blocked with milk solution (KPL, Inc., Gaithersburg, Md., USA) and the plates were inoculated in quadruplicate with multivalent IAs at different concentrations. Biotinylated vitronectin solution was added to each well as a standard competitor. The plates were incubated at room temperature, washed, and the bound vitronectin detected using NeutrAvidin-HRP® conjugate (Pierce, Rockford, Ill., USA) and LumiGlo® chemiluminescent substrate system (KPL, Inc., Gaithersburg, Md., USA). The luminescence was read using a FLUOstar® OPTIMA Microplate Reader (Durham, N.C., USA).
In vitro Binding Affinity Assay. Purified integrin αvβ3 protein (Chemicon International, Temecula, Calif., USA) was applied to 96-well polystyrene microtiter plates at 1 μg/well. After overnight incubation at 4° C., the plates were washed and then blocked with milk solution (KPL, Inc., Gaithersburg, Md., USA) at room temperature for 2 hr. The blocking buffer was removed, and the plates were inoculated in quadruplicate with bivalent IAs with a typical starting concentration of 125 nM. Serial dilutions were prepared in the 96-well plates using multichannel pipettes. Biotinylated vitronectin solution (0.1 μg/well) was added to each well as a standard competitor.
The plates were incubated at room temperature for 3 hr, washed, and the bound vitronectin was detected using NeutrAvidin-HRP conjugate at 0.01 μg/well (Pierce, Rockford, Ill., USA) and LumiGlo® chemiluminescent substrate system (KPL, Inc.). The luminescence was read using a FLUOstar OPTIMA Microplate Reader (Durham, N.C., USA). […] It measured competitive binding of the integrin antagonist and biotinylated human vitronectin for the immobilized receptor αvβ3.

[2] = tested on: U-87 xenograft tumors; assay: In vivo and ex vivo NIR fluorescence imaging of U-87 xenograft tumor-bearing mice
Description: U-87 MG Xenograft Model, Animal procedures were performed according to approved protocols. Female athymic nude mice (nu/nu), obtained from Charles River Laboratories, Inc. (Cambridge, Mass., USA) at 4-6 weeks of age, were injected subcutaneously in the right rear thigh with 1×10^7 U-87 MG cells suspended in 100 μL of phosphate-buffered saline (PBS). The cancer cells were harvested from sub-confluent cultures with 0.25% trypsin. Trypsinization was stopped with DMEM containing 10% FBS, after which the cells were washed once in serum-free medium and resuspended in PBS. Trypan blue exclusion was performed to ensure >90% cell viability. The tumor bearing mice were subjected to in vivo imaging studies when the tumors reached 0.4-0.6 cm in diameter.
In vivo Fluorescence Imaging of Tumors. ˜3×10^6 U-87 cells were implanted bilaterally in the posterior flanks of immunocompromised (nu/nu) mice and grown to ˜4 to 6 mm in diameter. Imaging was carried out in groups of five mice. After palpable masses were detected, animals were manually restrained and imaging probes were intravenously administered (lateral tail vein) using a 30-Ga needle via aseptic technique. Free Cy5.5 was prepared by dissolving the same Cy5.5NHS ester used for labeling the bivalent IA (GE Healthcare, Piscatway, N.J., USA) in phosphate buffered saline (PBS), pH 7.4 overnight at 4° C. Stock concentration of free Cy5.5 was measured optically using the molar extinction coefficient of 250000M-1 cm-1 using a UV-visible spectrophotometer at the maximum absorbance wavelength (675 nm) as recommended by the manufacturer. The bivalent-IA-Cy5.5 was weighed and confirmed by spectrophotometric measurement. Appropriate dilutions of each probe were made in PBS, pH 7.4, and each was filter sterilized (0.2-μm) immediately prior to use. All animals weighed between 18 and 20 g, and each received 10 nmol of imaging probe (in a total volume of 100 μL). Fluorescence imaging was performed with a small animal-dedicated optical imaging system (Xenogen/Caliper IVIS-200, Mountain View, Calif., USA) under continuous 1.5-2.0% isoflurane delivered through the integrated anesthesia nosecone system. At 2-, 4-, 7-, 24-, and 48-hrs' post-injection, images were acquired with the surface of the tissue of interest (tumor) approximating a perpendicular viewing angle relative to the camera line of sight; this viewing angle was also used for normal tissue selection.
For determining tumor contrast, mean fluorescence intensities of the tumor area (T) defined as radiance (photons/sec/cm2/sr) at the right rear leg of the animal and of the area (N) at the right flank (normal tissue) were calculated by region-of-interest (ROI) analysis using the corresponding photograph of each image acquisition dataset to identify the tumor region. Pre-injection imaging was also performed to determine baseline autofluorescence. For competitive inhibition studies, mice (n=3) were co-injected with 500 nmol bivalent IA and 10 nmol of imaging probe (bivalent-IA-Cy5.5) following the same procedure described above. Free Cy5.5 studies were performed in the same manner following the intravenous injection of 10 nmol. For ex vivo biodistribution imaging, two tumor-bearing mice were imaged 24 hrs post injection of bivalent-IA-Cy5.5 and thereafter euthanized per IACUC protocol (CO2 and cervical dislocation). Tumor and major internal organs (heart, lung, liver, spleen, gastrointestinal tract, and kidneys) were harvested, weighed, and imaged against a black paper background. All image acquisition parameters were as follows: epi-illumination; Cy5.5 Em/Ex; Bin: (HR)4, FOV: 12.9; f2; 0.2 sec.

[3] = tested on: U-87 MG (ATCC HTB-14) glioblastoma cells over-expressing integrin αvβ3; assay: Fluorescence microscopy probe binding assay in U-87 cells; type: cell-based, human; settings: 200 nM, 37° C., 45 min, confocal microscopy
Description: Fluorescence Microscopy Studies. […] For fluorescence microscopy studies, 1×10^4 U-87 cells were cultured on 35 mm MatTek glass bottom culture dishes. After 24 hr, cells were washed with PBS and then incubated with bivalent-IA-Cy5.5 (200 nM) at 37° C. for 45 min. Integrin specificity of the probe binding was verified by incubating U-87 cells with and without a blocking dose of the non-fluorescent bivalent IA (20 μmol/L). After the incubation period, the cells were washed three times with ice-cold PBS. The fluorescence signal of the cells was recorded using FluoView® 1000 Laser Scanning Confocal Microscope (Olympus, Center Valley, Pa., USA) under a 40× oil-immersion objective, with laser excitation at 675 nm (Cy5.5). A differential interference contrast image was also recorded so that the origin of fluorescent signals could be confirmed.

[4] = Example 2, PEG-linked ligands, averages of at least three determinations, read-out: In vitro EL1SA IC50

SMILES: CC(C)(CNC(=O)OCCOCCOCCOCCOC(=O)NCC(C)(C)COC(=O)NCCS(=O)(=O)N[C@@H](CNC(=O)c1ccc(OCCNC2=NCCCN2)cc1)C(=O)O)COC(=O)NCCS(=O)(=O)N[C@@H](CNC(=O)c1ccc(OCCNC2=NCCCN2)cc1)C(=O)O [Compound 7]
- IC50 [1, 4]: 0.11 nM

SMILES: CC(C)(CN)COC(=O)NCCS(=O)(=O)N[C@@H](CNC(=O)c1ccc(OCCNC2=NCCCN2)cc1)C(=O)O [IAC 2]
- IC50 [1, 4]: 2.07 nM
- higher binding affinity as compared to monomer 1 (IA) [1]: about 10 fold
- higher binding affinity as compared to monomer 1 (IA) ([1]; listed as 2): 10 fold

SMILES: CC(C)(CNC(=O)OCCOCCOCCOC(=O)NCC(C)(C)COC(=O)NCCS(=O)(=O)N[C@@H](CNC(=O)c1ccc(OCCNC2=NCCCN2)cc1)C(=O)O)COC(=O)NCCS(=O)(=O)N[C@@H](CNC(=O)c1ccc(OCCNC2=NCCCN2)cc1)C(=O)O [Compound 6]
- IC50 [1, 4]: 0.09 nM
- higher affinity as compared to the corresponding monomer 2 ([1]; compared to IAC 2): ~23 fold

SMILES: O=C(NCCS(=O)(=O)N[C@@H](CNC(=O)c1ccc(OCCNC2=NCCCN2)cc1)C(=O)O)OCCOCCOCCOC(=O)NCCS(=O)(=O)N[C@@H](CNC(=O)c1ccc(OCCNC2=NCCCN2)cc1)C(=O)O [Compound 3]
- IC50 [1, 4]: 0.16 nM

SMILES: CCN1\C(=C/C=C/C=C/C2=[N+](CCCCCC(=O)O)c3ccc4c(S(=O)(=O)O)cc(S(=O)(=O)O)cc4c3C2(C)C)C(C)(C)c2c1ccc1c(S(=O)(=O)[O-])cc(S(=O)(=O)O)cc21 [free Cy5.5, reference compound]
- tumor fluorescence signal / accumulation ([2]; 10 nmol i.v.): slightly higher than the background but is lower than that achieved with the bivalent-IA-Cy5.5

SMILES: CC[N+]1=C(/C=C/C=C/C=C2/N(CCCCCC(=O)NC(CCCCCC(=O)NCCS(=O)(=O)N[C@@H](CNC(=O)c3ccc(OCCNC4=NCCCN4)cc3)C(=O)O)C(=O)NCCS(=O)(=O)N[C@@H](CNC(=O)c3ccc(OCCNC4=NCCCN4)cc3)C(=O)O)c3ccc4c(S(=O)(=O)O)cc(S(=O)(=O)O)cc4c3C2(C)C)C(C)(C)c2c1ccc1c(S(=O)(=O)[O-])cc(S(=O)(=O)O)cc21 (stereo partly drawn) [bivalent-IA-Cy5.5]
- tumor fluorescence signal / accumulation ([2]; 10 nmol i.v.): increased signal in tumor sites at 7, 24, and 48 hrs; also recorded: modest accumulation at the tumor site
- tumor-to-normal tissue (T/N) fluorescence ratio, average maximum ([2]; 10 nmol i.v., plateau at 24 hr, n=5): ~1.84
- ex vivo signal per mass of tissue (biodistribution) ([2]; 24 hrs post-injection, two animals): The highest signal per mass of tissue was observed for the tumor
- blood-pool / circulation clearance rate ([2]; inferred from fluorescence): relatively slow blood-pool clearance rate; also recorded: relatively slow clearance of the probe from the circulation
- route of clearance ([2]; inferred from kidney fluorescence signal, 24 hrs): mainly renal clearance
- hepatic metabolism ([2]; inferred from minimal liver signal, 24 hrs): low hepatic metabolism
- IC50 ([1]; Example 1 bivalent IA study, FIG. 4, read-out: IC50 of vitronectin binding to αvβ3 (ELISA)): 0.13 ± 0.02 nM
- endocytosis / binding of probe in U-87 cells [3]: endocytosis of the imaging probes; also recorded: integrin-mediated endocytosis
- endocytosis / binding of probe in U-87 cells ([3]; listed as Bivalent-IA-Cy5.5 conjugate): Receptor-mediated endocytosis was observed
- endocytosis / binding of probe in U-87 cells ([3]; listed as bivalent-IA-Cy5.5 conjugate): integrin-mediated endocytosis

Results, then the compound that gave them:

- IC50 [1, 4]: 0.32 nM
SMILES: CC(C)(CNC(=O)OCCOCCOCCOCCOCCOCCOCCOCCOC(=O)NCC(C)(C)COC(=O)NCCS(=O)(=O)NC(CNC(=O)c1ccc(OCCNC2=NCCCN2)cc1)C(=O)O)COC(=O)NCCS(=O)(=O)NC(CNC(=O)c1ccc(OCCNC2=NCCCN2)cc1)C(=O)O (stereo not drawn) [Compound 8]

- IC50 [1, 4]: 0.16 nM
SMILES: O=C(NCCS(=O)(=O)N[C@@H](CNC(=O)c1ccc(OCCNC2=NCCCN2)cc1)C(=O)O)OCCOCCOCCOCCOCCOCCOCCOCCOC(=O)NCCS(=O)(=O)N[C@@H](CNC(=O)c1ccc(OCCNC2=NCCCN2)cc1)C(=O)O [Compound 5]

- IC50 [1, 4]: 0.16 nM
SMILES: O=C(NCCS(=O)(=O)N[C@@H](CNC(=O)c1ccc(OCCNC2=NCCCN2)cc1)C(=O)O)OCCOCCOCCOCCOC(=O)NCCS(=O)(=O)N[C@@H](CNC(=O)c1ccc(OCCNC2=NCCCN2)cc1)C(=O)O [Compound 4]
